In patent US20210115104A1, “AMYLIN ANALOGUES” (Zealand Pharma A/S, priority 2015, published 2021):
*1 amine or outer side, *2 acyl side, *3 side chain or, on linkers, in order; H or OH if unused. Where a SMILES comes first, the peptide text is derived from it. Bridges are numbered along the chain shown (N, C = ends). [ ]: non-standard residue; d: D form. The star is where a group is joined. C20 diacid = O=C(O)CCCCCCCCCCCCCCCCCCC(=O)*; γGlu = O=C(O)[C@H](CCC(=O)[*:2])N[*:1]; Hyp = O=C(O)[C@@H]1C[C@@H](O)CN1; NMeI = CC[C@H](C)[C@H](NC)C(=O)O; Aad = N[C@@H](CCCC(=O)O)C(=O)O; Sar = CNCC(=O)O

What was measured:
[1] = Assessment of physical stability (Thioflavin T fibrillation); format: physicochemical; parameters: key: FND = fibrillation not detected; FD = fibrillation detected; conditions: 1 mg/ml, 40° C., ThT
Description: Solutions containing (i) 1 mg/ml of test peptide, 40 μM ThT and 50 mM phosphate (Ph) buffer (pH 7.0), (ii) 1 mg/ml of test peptide, 40 μM ThT and 50 mM histidine (His) buffer (pH 7.0), and (iii) 1 mg/ml of test peptide, 40 μM ThT and 50 mM acetate (Ac) buffer (pH 4.0), were loaded in a 96-well black fluorescence plate (clear bottom) in triplicate. Data were collected at fixed intervals of 10 min, each preceded by 300 s of automixing (agitation), over a period of 96 hours at 40° C. Physical stability, expressed as lag-time of fibril formation (in hours), was defined as the intersection between two linear regressions representing the initial stable phase and the growth phase.

[2] = biological target: T1, human calcitonin receptor (hCTR2) (Homo sapiens, UniProt P30988); test: hCTR2 cAMP assay (AlphaScreen) in COS7 cells; format: cell-based; conditions: cAMP induction, COS7 cells expressing hCTR2; Table 1; read-out: hCTR2 EC50
T1 construct: expressed in transfected cells
T1 sequence (P30988 25-474): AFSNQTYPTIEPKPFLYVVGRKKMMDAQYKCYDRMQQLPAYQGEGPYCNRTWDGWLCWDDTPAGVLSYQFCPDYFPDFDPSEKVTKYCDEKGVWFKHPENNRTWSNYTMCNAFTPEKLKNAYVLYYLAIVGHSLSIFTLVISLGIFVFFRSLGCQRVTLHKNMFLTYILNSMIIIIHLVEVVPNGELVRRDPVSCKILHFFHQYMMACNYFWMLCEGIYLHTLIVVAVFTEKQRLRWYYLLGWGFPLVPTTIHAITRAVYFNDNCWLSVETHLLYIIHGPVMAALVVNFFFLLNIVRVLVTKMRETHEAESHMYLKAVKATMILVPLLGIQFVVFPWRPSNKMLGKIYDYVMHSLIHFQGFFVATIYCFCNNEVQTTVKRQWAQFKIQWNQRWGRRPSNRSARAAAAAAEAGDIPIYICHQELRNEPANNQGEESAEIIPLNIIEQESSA
Source text: The cell line COS7, originating from African Green Monkey kidney fibroblast cells, was used for establishment of the stable cell lines described below. The COS7 cellular background was used due to it being RAMP naïve, and as such it provides the best available system for testing of the monomeric hCTR and different heterodimeric amylin receptor subtypes functionally generated by introduction of the individual RAMPs.
A cell line expressing the human calcitonin receptor (hCTR2) was generated in the COS7 cellular background as stable clones. In brief, hCTR2 (GI: 4502547) was amplified by PCR using primers encoding terminal restriction sites for subcloning. The 5′-end primers additionally encoded a near Kozak consensus sequence to ensure efficient translation. The fidelity of the DNA encoding the receptor was confirmed by DNA sequencing. The PCR products encoding the receptor were subcloned into a mammalian expression vector containing a neomycin (G418) resistance marker. The mammalian expression vector encoding the receptor was transfected into COS7 cells by a standard liposome transfection method. 48 hours post-transfection, cells were seeded for limited dilution cloning and selected with 1 mg/ml G418 in the culture medium. After 3 weeks, surviving colonies of hCTR2-expressing cells were picked, propagated and tested in the amylin efficacy assay as described in Example 3 below. One hCTR2-expressing clone was chosen for compound profiling.
In vitro activity of test peptides at the hCTR2 and hAMYR3 receptors was assessed by measuring the induction of cAMP following stimulation of the receptor using the AlphaScreen® cAMP Assay kit from Perkin-Elmer.
Briefly, COS7 cells expressing hCTR2 (see Example 2, above) were seeded at 30-40,000 cells per well in 96-well microtiter plates coated with 0.01% poly-L-lysine, and grown for 1 day in culture in 100 μl growth medium [DMEM, 10% FCS, Penicillin (100 IU/ml), Streptomycin (100 μg/ml)]. On the day of analysis, growth medium was removed and the cells were washed once with 200 μl Tyrode buffer [Tyrode's Salts (9.6 g/I), 10 mM HEPES, pH 7.4]. Cells were incubated in 100 μl Tyrode buffer containing increasing concentrations of test peptides, 100 µM IBMX and 0.1% casein for 15 min at 37° C. The reaction was stopped by carefully decanting off the compound/buffer medium and replacing it with lysis/detection buffer (80 μl 0.1% w/v BSA, 5 mM HEPES, 0.3% v/v Tween-20 in deionized water). After incubation at room temperature for 10 min., the cAMP content of the resulting cell lysate was estimated according to the AlphaScreen® cAMP Assay manufacturer's instructions. EC50 values were estimated by computer-aided curve fitting using the 4-parameter logistic (4PL) non-linear model.

Compound	Fibrillation pH 4.0 (Ac) ([1]; 50 mM acetate buffer pH 4.0, 96 hours)	Fibrillation pH 7.0 (His) ([1]; 50 mM histidine buffer pH 7.0, 96 hours)	Fibrillation pH 7.0 (Phos.) ([1]; 50 mM phosphate buffer pH 7.0, 96 hours)	EC50 [2]
CC[C@H](C)[C@@H](C(=O)N[C@@H](CC(C)C)C(=O)N[C@@H](CO)C(=O)N[C@@H](CO)C(=O)N[C@H](C(=O)N[C@@H](CCC(=O)O)C(=O)N[C@H](C(=O)NCC(=O)N[C@@H](CO)C(=O)N[C@@H](CC(N)=O)C(=O)N[C@H](C(=O)N1C[C@H](O)C[C@H]1C(N)=O)[C@@H](C)O)C(C)C)[C@@H](C)O)N(C)C(=O)[C@H](C)NC(=O)CN(C)C(=O)[C@H](Cc1ccccc1)NC(=O)[C@H](CO)NC(=O)[C@H](CO)NC(=O)[C@H](CCCNC(=N)N)NC(=O)[C@@H](NC(=O)[C@H](CC(C)C)NC(=O)[C@H](Cc1ccccc1)NC(=O)[C@H](Cc1c[nH]cn1)NC(=O)[C@H](C)NC(=O)[C@H](CC(C)C)NC(=O)[C@H](CCCNC(=N)N)NC(=O)[C@H](CCC(=O)O)NC(=O)[C@@H](NC(=O)[C@H](C)NC(=O)[C@@H]1CSSC[C@H](NC(=O)[C@H](CCCNC(=N)N)NC(=O)CC[C@H](NC(=O)CCCCCCCCCCCCCCCCCCC(=O)O)C(=O)O)C(=O)NCC(=O)N[C@@H]([C@@H](C)O)C(=O)N[C@@H](C)C(=O)N[C@@H]([C@@H](C)O)C(=O)N1)[C@@H](C)O)[C@@H](C)O [Compound 18, [19CD]-isoGlu-R-C( )-GTAT-C( )-ATERLAHFLTRSSF-Gly(Me)-A-Ile(Me)-LSSTEVGSNT-Hyp-NH2] ({C20 diacid-γGlu}-RCGTATCATERLAHFLTRSSF[Sar]A[NMeI]LSSTEVGSNT[Hyp]-NH2; disulfide 2-7)	FND	FD	FD	0.12 nM
CC[C@H](C)[C@@H](C(=O)N[C@@H](CC(C)C)C(=O)N[C@@H](CO)C(=O)N[C@@H](CO)C(=O)N[C@H](C(=O)N[C@@H](CCC(=O)O)C(=O)N[C@H](C(=O)NCC(=O)N[C@@H](CO)C(=O)N[C@H](C(=O)N[C@H](C(=O)N1C[C@H](O)C[C@H]1C(N)=O)[C@@H](C)O)[C@@H](C)O)C(C)C)[C@@H](C)O)N(C)C(=O)[C@H](C)NC(=O)CN(C)C(=O)[C@H](Cc1ccccc1)NC(=O)[C@H](CO)NC(=O)[C@H](CO)NC(=O)[C@H](CCCNC(=N)N)NC(=O)[C@H](CCC(N)=O)NC(=O)[C@H](CC(C)C)NC(=O)[C@H](Cc1ccccc1)NC(=O)[C@H](Cc1c[nH]cn1)NC(=O)[C@H](C)NC(=O)[C@H](CC(C)C)NC(=O)[C@H](CCCNC(=N)N)NC(=O)[C@H](CCC(=O)O)NC(=O)[C@@H](NC(=O)[C@H](C)NC(=O)[C@@H]1CSSC[C@H](NC(=O)[C@H](CCCNC(=N)N)NC(=O)CC[C@H](NC(=O)CCCCCCCCCCCCCCCCCCC(=O)O)C(=O)O)C(=O)N2CCC[C@H]2C(=O)N[C@@H]([C@@H](C)O)C(=O)N[C@@H](C)C(=O)N[C@@H]([C@@H](C)O)C(=O)N1)[C@@H](C)O [Compound 74, [19CD]-isoGlu-R-C( )-PTAT-C( )-ATERLAHFLQRSSF-Gly(Me)-A-Ile(Me)-LSSTEVGSTT-Hyp-NH2] ({C20 diacid-γGlu}-RCPTATCATERLAHFLQRSSF[Sar]A[NMeI]LSSTEVGSTT[Hyp]-NH2; disulfide 2-7)				0.58 nM
CC[C@H](C)[C@@H](C(=O)N[C@@H](CC(C)C)C(=O)N[C@@H](CO)C(=O)N[C@@H](CO)C(=O)N[C@H](C(=O)N[C@@H](CCC(=O)O)C(=O)N[C@H](C(=O)NCC(=O)N[C@@H](CO)C(=O)N[C@@H](CCCC(=O)O)C(=O)N[C@H](C(=O)N1C[C@H](O)C[C@H]1C(N)=O)[C@@H](C)O)C(C)C)[C@@H](C)O)N(C)C(=O)[C@H](C)NC(=O)CN(C)C(=O)[C@H](Cc1ccccc1)NC(=O)[C@H](CO)NC(=O)[C@H](CO)NC(=O)[C@H](CCCNC(=N)N)NC(=O)[C@H](CCC(N)=O)NC(=O)[C@H](CC(C)C)NC(=O)[C@H](Cc1ccccc1)NC(=O)[C@H](Cc1c[nH]cn1)NC(=O)[C@H](C)NC(=O)[C@H](CC(C)C)NC(=O)[C@H](CCCNC(=N)N)NC(=O)[C@H](CCC(=O)O)NC(=O)[C@@H](NC(=O)[C@H](C)NC(=O)[C@@H]1CSSC[C@H](NC(=O)[C@H](CCCNC(=N)N)NC(=O)CC[C@H](NC(=O)CCCCCCCCCCCCCCCCCCC(=O)O)C(=O)O)C(=O)N2CCC[C@H]2C(=O)N[C@@H]([C@@H](C)O)C(=O)N[C@@H](C)C(=O)N[C@@H]([C@@H](C)O)C(=O)N1)[C@@H](C)O [Compound 76, [19CD]-isoGlu-R-C( )-PTAT-C( )-ATERLAHFLQRSSF-Gly(Me)-A-Ile(Me)-LSSTEVGS-Aad-T-Hyp-NH2] ({C20 diacid-γGlu}-RCPTATCATERLAHFLQRSSF[Sar]A[NMeI]LSSTEVGS[Aad]T[Hyp]-NH2; disulfide 2-7)				0.44 nM
CC[C@H](C)[C@@H](C(=O)N[C@@H](CC(C)C)C(=O)N[C@@H](CO)C(=O)N[C@@H](CO)C(=O)N[C@H](C(=O)N[C@@H](CCC(=O)O)C(=O)N[C@H](C(=O)NCC(=O)N[C@@H](CO)C(=O)N[C@@H](CO)C(=O)N[C@H](C(=O)N1CCC[C@H]1C(N)=O)[C@@H](C)O)C(C)C)[C@@H](C)O)N(C)C(=O)[C@H](C)NC(=O)CN(C)C(=O)[C@H](Cc1ccccc1)NC(=O)[C@H](CO)NC(=O)[C@H](CO)NC(=O)[C@H](CCCNC(=N)N)NC(=O)[C@H](CCC(=O)O)NC(=O)[C@H](CC(C)C)NC(=O)[C@H](Cc1ccccc1)NC(=O)[C@H](Cc1c[nH]cn1)NC(=O)[C@H](C)NC(=O)[C@H](CC(C)C)NC(=O)[C@H](CCCNC(=N)N)NC(=O)[C@H](CCC(N)=O)NC(=O)[C@@H](NC(=O)[C@H](C)NC(=O)[C@@H]1CSSC[C@H](NC(=O)[C@H](CCCNC(=N)N)NC(=O)CC[C@H](NC(=O)CCCCCCCCCCCCCCCCCCC(=O)O)C(=O)O)C(=O)N[C@@H](CC(N)=O)C(=O)N[C@@H]([C@@H](C)O)C(=O)N[C@@H](C)C(=O)N[C@@H]([C@@H](C)O)C(=O)N1)[C@@H](C)O [Compound 84, [19CD]-isoGlu-R-C( )-NTAT-C( )-ATQRLAHFLERSSF-Gly(Me)-A-Ile(Me)-LSSTEVGSSTP-NH2] ({C20 diacid-γGlu}-RCNTATCATQRLAHFLERSSF[Sar]A[NMeI]LSSTEVGSSTP-NH2; disulfide 2-7)				0.15 nM
